Several values for one entry are separate records, joined by “and”; a condition that tells them apart may be missing. Equal entries are not always repeated.
Columns and labels:
J774 cells = assay: Intracellular drug accumulation assay in J774 cells (LC-MS); settings: 24 hours
[1] = tested on: Mtb growth in J774 macrophage-like cells; assay: J774 infection in 96-well plates, mKO fluorescence 6 days post-infection; format: cell-based, Mycobacterium tuberculosis; settings: for % Growth: Fig. 2D, DMSO = 100
How it was run: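 J774 cells infected with mKO-expressing log-phase Mtb (40 μl at OD600 = 0.2 per well) and treated with compound at 10 μM final (0.1% DMSO). mKO fluorescence (ex 543/em 565 nm) read at infection and 6 days later at 37 °C, 5% CO2; growth expressed relative to DMSO controls as 100%.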

[2] = tested on: macrophage phagosomal acidification in BMDMs; assay: Phagosomal maturation assay, carboxyfluorescein beads (pH readout); format: cell-based, mouse; settings: for 490 nm/450 nm, Average: average of 5 replicates
Experimental: Carboxyfluorescein (pH readout), DQ-BSA/Alexa Fluor 594 (AF594) (proteolysis readout), and BAC/AF594 (Cl^− readout) beads were generated essentially as previously described, except that 10,10′-Bis[3-carboxylpropyl]-9,9′-biacridinium dinitrate di-NHS ester (BAC-SE) was purchased from emp Biotech LLC. BMDMs were isolated from C57BL/6J mice (The Jackson Laboratory) and maintained as described above. A quantity of 2 × 10^5 macrophages/well were seeded into 96-well clear bottom black plates and utilized in assays 1 to 2 days post-seeding. […] Assay buffer consisted of PBS (pH 7.2), supplemented with 5% FBS, 5 mM dextrose, 1 mM CaCl2, 2.7 mM KCl, and 0.5 mM MgCl2 in the case of assays with the carboxyfluorescein or DQ-BSA/AF594 beads. For assays with the BAC/AF594 beads, assay buffer consisted of PBS (pH 7.2), supplemented with 5% FBS, 5 mM dextrose, 1 mM calcium acetate, 1.35 mM K2SO4, and 0.5 mM MgSO4 [9]. Sensor beads at approximately 2 to 5 beads/macrophage in appropriate assay buffer were finally added, with data acquisition on a Biotek Synergy H1 microplate reader with bottom read signal detection started within 2 to 3 minutes of bead addition. Excitation/emission wavelengths were 450 nm/520 nm and 490 nm/520 nm for carboxyfluorescein, 490 nm/520 nm for DQ-BSA, 365 nm/505 nm for BAC, and 590 nm/617 nm for AF594. Each experiment was run with a total of 3 to 5 replicate wells/condition, with temperature maintained at 37°C throughout the assay. Wells were read every 2 minutes for 2 hours for the carboxyfluorescein bead assays, every 2 minoutes for 4 hours for the DQ-BSA/AF594 bead assays, and every 1 minute for 2 hours for the BAC/AF594 bead assays. Analyses of the results were performed as previously described.

CYP2C19 = CYP2C19 (Homo sapiens, UniProt P33261); assay: Human cytochrome P450 inhibition, 2C19; format: in vitro ADME; settings: read-out: % inhibition of CYP 2C19
Chain of CYP2C19 (P33261 whole entry): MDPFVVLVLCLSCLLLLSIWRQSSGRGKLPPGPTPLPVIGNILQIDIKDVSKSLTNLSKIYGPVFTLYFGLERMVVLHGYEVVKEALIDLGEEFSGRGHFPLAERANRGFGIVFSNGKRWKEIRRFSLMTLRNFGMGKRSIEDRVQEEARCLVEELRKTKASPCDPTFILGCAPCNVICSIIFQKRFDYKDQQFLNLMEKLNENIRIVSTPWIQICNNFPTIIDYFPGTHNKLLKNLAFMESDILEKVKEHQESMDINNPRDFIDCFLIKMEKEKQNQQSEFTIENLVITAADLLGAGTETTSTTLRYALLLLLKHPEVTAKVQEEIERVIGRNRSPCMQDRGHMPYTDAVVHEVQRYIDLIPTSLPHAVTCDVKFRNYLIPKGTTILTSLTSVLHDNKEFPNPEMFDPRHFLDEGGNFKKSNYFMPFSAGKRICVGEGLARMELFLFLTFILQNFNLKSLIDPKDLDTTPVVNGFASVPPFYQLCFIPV
Experimental: Assays examining mouse and human liver microsomal stability, kinetic aqueous solubility, mouse and human plasma protein binding and stability, and human cytochrome P450 inhibition characteristics of the compounds were run by BioDuro (San Diego, CA), using standard protocols as previously described [37]. hERG inhibition assays were also performed by BioDuro.

CCSc1ncc(CN2CCN(c3nc4ccccc4o3)CC2)cn1 [C6, 2-(4-((2-(ethylthio)pyrimidin-5-yl)methyl)piperazin-1-yl)benzo[d]oxazole]
Intracellular accumulation in J774 cells (J774 cells): dose-dependent accumulation | % growth of Mtb in J774 cells, average ([1]; 10 μM compound, 6 days post-infection, DMSO = 100%, Fig 1H): 40.8112% | Inhibition of Mtb growth in J774 cells ([1]; 10 μM, 6 days post-infection): Mtb growth inhibition | % Growth ([1]; average of 4 replicates): 56.2334% | % Growth ([1]; individual replicates): 53.4835% and 56.5013% and 56.5506% and 58.3983% | Effect on macrophage phagosomal acidification ([2]; 10 μM, uninfected BMDMs): did not alter | 490 nm/450 nm, Average ([2]; time 0 minutes): 4.858 | 490 nm/450 nm, Average ([2]; time 2 minutes): 4.93 | 490 nm/450 nm, Average ([2]; time 4 minutes): 4.883 | 490 nm/450 nm, single replicates (Rep 1-5) ([2]; time 6 minutes): 4.9284 and 4.8623 and 4.895 and 4.851 and 4.867 | 490 nm/450 nm, Average ([2]; time 6 minutes): 4.881 | 490 nm/450 nm, single replicates (Rep 1-5) ([2]; time 8 minutes): 4.803 and 4.864 and 4.815 and 4.7957 and 4.8066 | 490 nm/450 nm, Average ([2]; time 8 minutes): 4.817 | 490 nm/450 nm, single replicates (Rep 1-5) ([2]; time 10 minutes): 4.783 and 4.786 and 4.81 and 4.727 and 4.764 | 490 nm/450 nm, Average ([2]; time 10 minutes): 4.774 | 490 nm/450 nm, single replicates (Rep 1-5) ([2]; time 12 minutes): 4.5604 and 4.6849 and 4.647 and 4.525 and 4.478 | 490 nm/450 nm, Average ([2]; time 12 minutes): 4.579 | 490 nm/450 nm, single replicates (Rep 1-5) ([2]; time 14 minutes): 4.45 and 4.492 and 4.497 and 4.303 and 4.234 | 490 nm/450 nm, Average ([2]; time 14 minutes): 4.395 | 490 nm/450 nm, single replicates (Rep 1-5) ([2]; time 16 minutes): 4.182 and 4.214 and 4.296 and 4.029 and 3.894 | 490 nm/450 nm, Average ([2]; time 16 minutes): 4.123 | 490 nm/450 nm, single replicates (Rep 1-5) ([2]; time 18 minutes): 3.914 and 3.991 and 4.055 and 3.796 and 3.692 | 490 nm/450 nm, Average ([2]; time 18 minutes): 3.89 | 490 nm/450 nm, single replicates (Rep 1-5) ([2]; time 20 minutes): 3.661 and 3.707 and 3.803 and 3.557 and 3.477 | 490 nm/450 nm, Average ([2]; time 20 minutes): 3.641 | 490 nm/450 nm, single replicates (Rep 1-5) ([2]; time 22 minutes): 3.443 and 3.455 and 3.57 and 3.319 and 3.292 | 490 nm/450 nm, Average ([2]; time 22 minutes): 3.416 | 490 nm/450 nm, single replicates (Rep 1-5) ([2]; time 24 minutes): 3.1867 and 3.242 and 3.389 and 3.087 and 3.065 | 490 nm/450 nm, Average ([2]; time 24 minutes): 3.194 | 490 nm/450 nm, single replicates (Rep 1-5) ([2]; time 26 minutes): 3.004 and 3.052 and 3.169 and 2.941 and 2.895 | 490 nm/450 nm, Average ([2]; time 26 minutes): 3.012 | 490 nm/450 nm, single replicates (Rep 1-5) ([2]; time 28 minutes): 2.852 and 2.904 and 3.023 and 2.803 and 2.7626 | 490 nm/450 nm, Average ([2]; time 28 minutes): 2.869 | 490 nm/450 nm, single replicates (Rep 1-5) ([2]; time 30 minutes): 2.719 and 2.762 and 2.859 and 2.651 and 2.679 | 490 nm/450 nm, Average ([2]; time 30 minutes): 2.734 | 490 nm/450 nm, single replicates (Rep 1-5) ([2]; time 32 minutes): 2.588 and 2.623 and 2.733 and 2.5744 and 2.581 | 490 nm/450 nm, Average ([2]; time 32 minutes): 2.62 | 490 nm/450 nm, single replicates (Rep 1-5) ([2]; time 34 minutes): 2.506 (2×) and 2.556 and 2.644 and 2.5507 | 490 nm/450 nm, Average ([2]; time 34 minutes): 2.552 | 490 nm/450 nm, single replicates (Rep 1-5) ([2]; time 36 minutes): 2.483 and 2.493 and 2.575 and 2.447 and 2.499 | 490 nm/450 nm, Average ([2]; time 36 minutes): 2.499 | 490 nm/450 nm, single replicates (Rep 1-5) ([2]; time 38 minutes): 2.411 and 2.458 and 2.4978 and 2.4066 and 2.452 | 490 nm/450 nm, Average ([2]; time 38 minutes): 2.445 | 490 nm/450 nm, single replicates (Rep 1-5) ([2]; time 40 minutes): 2.369 and 2.38 and 2.4986 and 2.406 and 2.442 | 490 nm/450 nm, Average ([2]; time 40 minutes): 2.419 | 490 nm/450 nm, single replicates (Rep 1-5) ([2]; time 42 minutes): 2.364 and 2.3783 and 2.434 and 2.346 and 2.427 | 490 nm/450 nm, Average ([2]; time 42 minutes): 2.3898 | 490 nm/450 nm, single replicates (Rep 1-5) ([2]; time 44 minutes): 2.319 and 2.337 and 2.405 and 2.355 and 2.4128 | 490 nm/450 nm, Average ([2]; time 44 minutes): 2.3655 | 490 nm/450 nm, Average ([2]; time 46 minutes): 2.351 | 490 nm/450 nm, Average ([2]; time 48 minutes): 2.35 | 490 nm/450 nm, Average ([2]; time 50 minutes): 2.351 | 490 nm/450 nm, Average ([2]; time 52 minutes): 2.342 | 490 nm/450 nm, Average ([2]; time 54 minutes): 2.342 | 490 nm/450 nm, Average ([2]; time 56 minutes): 2.334 | 490 nm/450 nm, Average ([2]; time 58 minutes): 2.337 | 490 nm/450 nm, Average ([2]; time 60 minutes): 2.3392 | 490 nm/450 nm, Average ([2]; time 62 minutes): 2.354 | 490 nm/450 nm, Average ([2]; time 64 minutes): 2.349 | 490 nm/450 nm, Average ([2]; time 66 minutes): 2.351 | 490 nm/450 nm, Average ([2]; time 68 minutes): 2.358 | 490 nm/450 nm, Average ([2]; time 70 minutes): 2.362 | 490 nm/450 nm, Average ([2]; time 72 minutes): 2.363 | 490 nm/450 nm, Average ([2]; time 74 minutes): 2.3781 | 490 nm/450 nm, Average ([2]; time 76 minutes): 2.3813 | 490 nm/450 nm, Average ([2]; time 78 minutes): 2.38 | 490 nm/450 nm, Average ([2]; time 80 minutes): 2.392 | 490 nm/450 nm, Average ([2]; time 82 minutes): 2.387 | 490 nm/450 nm, Average ([2]; time 84 minutes): 2.389 | 490 nm/450 nm, Average ([2]; time 86 minutes): 2.399 | 490 nm/450 nm, Average ([2]; time 88 minutes): 2.414 | 490 nm/450 nm, Average ([2]; time 90 minutes): 2.411 | 490 nm/450 nm, Average ([2]; time 92 minutes): 2.4274 | 490 nm/450 nm, Average ([2]; time 94 minutes): 2.4259 | 490 nm/450 nm, Average ([2]; time 96 minutes): 2.426 | 490 nm/450 nm, Average ([2]; time 98 minutes): 2.438 | 490 nm/450 nm, Average ([2]; time 100 minutes): 2.447 | 490 nm/450 nm, Average ([2]; time 102 minutes): 2.452 | 490 nm/450 nm, Average ([2]; time 104 minutes): 2.453 | 490 nm/450 nm, Average ([2]; time 106 minutes): 2.461 | 490 nm/450 nm, Average ([2]; time 108 minutes): 2.469 | 490 nm/450 nm, Average ([2]; time 110 minutes): 2.47 | 490 nm/450 nm, Average ([2]; time 112 minutes): 2.479 | 490 nm/450 nm, Average ([2]; time 114 minutes): 2.475 | 490 nm/450 nm, Average ([2]; time 116 minutes): 2.485 | 490 nm/450 nm, Average ([2]; time 118 minutes): 2.494 | 490 nm/450 nm, Average ([2]; time 120 minutes): 2.492 | inhibition at 10 µM (CYP2C19): 30.3%

Reference: PMC8351955, “Targeting Mycobacterium tuberculosis response to environmental cues for the development of effective antitubercular drugs” (PLoS Biology, 2021)
